Test results as given in PubChem BioAssay AID330 (DTP/NCI, 2004).
Several values for one entry are separate records, joined by “and”; a condition that tells them apart may be missing. Identical values can stand only once. Inconclusive results and toxic doses are left out. How the source made its calls: active means survival T/C of 150% or more; inactive means T/C below 125% in these data.

System: P388 leukemia ip, CD2F1 mice, survival T/C
Assay: NCI In Vivo Anticancer Drug Screen. Data for tumor model P388 Leukemia (intraperitoneal) in CD2F1 (CDF1) mice
Settings: endpoint: median survival time, higher = longer survival
Procedure, shortened: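 Mice carrying the transplanted tumor received test compound or vehicle. Survival was recorded in each group, and the value is the treated-group measurement divided by that of the vehicle-treated control group.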

[1] = dose: 50.0 mg/kg/injection, schedule: Q01DX005 (ip), vehicle: saline with Tween-80
[2] = dose: 100.0 mg/kg/injection, schedule: Q01DX005 (ip), vehicle: saline with Tween-80
[3] = dose: 50.0 mg/kg/injection, schedule: Q01DX009 (ip), vehicle: Klucel (hydroxypropylcellulose) (HPC)
[4] = dose: 100.0 mg/kg/injection, schedule: Q01DX009 (ip), vehicle: Klucel (hydroxypropylcellulose) (HPC)
[5] = dose: 200.0 mg/kg/injection, schedule: Q01DX009 (ip), vehicle: Klucel (hydroxypropylcellulose) (HPC)
[6] = dose: 50.0 mg/kg/injection, schedule: Q01DX005 (ip), vehicle: Klucel (hydroxypropylcellulose) (HPC)
[7] = dose: 100.0 mg/kg/injection, schedule: Q01DX005 (ip), vehicle: Klucel (hydroxypropylcellulose) (HPC)
[8] = dose: 200.0 mg/kg/injection, schedule: Q01DX005 (ip), vehicle: Klucel (hydroxypropylcellulose) (HPC)
[9] = dose: 200.0 mg/kg/injection, schedule: Q01DX005 (ip), vehicle: saline with Tween-80
[10] = dose: 12.5 mg/kg/injection, schedule: Q01DX009 (ip), vehicle: saline with Tween-80
[11] = dose: 50.0 mg/kg/injection, schedule: Q01DX009 (ip), vehicle: saline
[12] = dose: 100.0 mg/kg/injection, schedule: Q01DX009 (ip), vehicle: saline
[13] = dose: 25.0 mg/kg/injection, schedule: Q01DX009 (ip), vehicle: saline

Measured: T/C

O=C(O)C(Cc1ccc(OC(=O)C(F)(F)F)cc1)NC(=O)C(F)(F)F (stereo unspecified)
inactive: dose: 25.0 mg/kg/injection, schedule: Q04DX003 (ip), vehicle: saline with Tween-80 95 % of control | dose: 50.0 mg/kg/injection, schedule: Q04DX003 (ip), vehicle: saline with Tween-80 100 % of control | dose: 100.0 mg/kg/injection, schedule: Q04DX003 (ip), vehicle: saline with Tween-80 100 % of control and 101 % of control | dose: 400.0 mg/kg/injection, schedule: Q04DX003 (ip), vehicle: saline with Tween-80 93 % of control

C=C(C#N)C1OC2OC(C)(C)OC2C1OC (stereo unspecified)
inactive: [1] 107 % of control | [2] 118 % of control

Nn1nnc(-c2ccccc2)n1
inactive: [3] 96 % of control | [4] 96 % of control | [5] 97 % of control

C=C1C(=O)OC2C(OC(=O)CC(C)C)CCCC12 (stereo unspecified)
inactive: dose: 60.0 mg/kg/injection, schedule: Q01DX005 (ip), vehicle: Klucel (hydroxypropylcellulose) (HPC) 94 % of control | dose: 120.0 mg/kg/injection, schedule: Q01DX005 (ip), vehicle: Klucel (hydroxypropylcellulose) (HPC) 92 % of control | dose: 240.0 mg/kg/injection, schedule: Q01DX005 (ip), vehicle: Klucel (hydroxypropylcellulose) (HPC) 92 % of control

CCOc1c(N=Nc2cccc([N+](=O)[O-])c2)c(C)nn1C(=S)S
inactive: dose: 60.0 mg/kg/injection, schedule: Q01DX005 (ip), vehicle: Klucel + Tween-80 97 % of control | dose: 120.0 mg/kg/injection, schedule: Q01DX005 (ip), vehicle: Klucel + Tween-80 97 % of control | dose: 240.0 mg/kg/injection, schedule: Q01DX005 (ip), vehicle: Klucel + Tween-80 98 % of control

CC1C[P+](c2ccccc2)(c2ccccc2)Cc2ccccc21 (stereo unspecified)
inactive: dose: 6.25 mg/kg/injection, schedule: Q01DX001 (ip), vehicle: saline 101 % of control and 105 % of control and 108 % of control | dose: 12.5 mg/kg/injection, schedule: Q01DX001 (ip), vehicle: saline 101 % of control and 117 % of control

CC(/C=C/c1ccc(C)cc1)=N\NC(N)=S
inactive: dose: 1.5 mg/kg/injection, schedule: Q01DX005 (ip), vehicle: Klucel + Tween-80 99 % of control | dose: 3.0 mg/kg/injection, schedule: Q01DX005 (ip), vehicle: Klucel + Tween-80 105 % of control | dose: 6.0 mg/kg/injection, schedule: Q01DX005 (ip), vehicle: Klucel + Tween-80 105 % of control | dose: 6.0 mg/kg/injection, schedule: Q01DX005 (ip), vehicle: saline 112 % of control

S=C1N(c2ccc(Cl)cc2)C2=C(N=Nc3ccccc3Cl)C(=Nc3ccccc3S2)N1c1ccccn1
inactive: [2] 108 % of control

O=C1c2ccc([N+](=O)[O-])cc2C(=O)N1CC[P+](c1ccccc1)(c1ccccc1)c1ccccc1
inactive: dose: 0.78 mg/kg/injection, schedule: Q01DX009 (ip), vehicle: water 100 % of control | dose: 1.56 mg/kg/injection, schedule: Q01DX009 (ip), vehicle: water 100 % of control | dose: 3.13 mg/kg/injection, schedule: Q01DX009 (ip), vehicle: water 103 % of control | dose: 6.25 mg/kg/injection, schedule: Q01DX009 (ip), vehicle: water 98 % of control | dose: 12.5 mg/kg/injection, schedule: Q01DX009 (ip), vehicle: water 98 % of control | dose: 25.0 mg/kg/injection, schedule: Q01DX009 (ip), vehicle: water 106 % of control and 107 % of control

O=C1OC(c2ccccc2)=N/C1=C\c1ccc(Br)cc1
inactive: [6] 93 % of control | [7] 87 % of control and 95 % of control | [8] 87 % of control

CC(C)(Nc1ccccc1)C(=O)OC(C)(C)C(=O)Nc1ccccc1
inactive: [1] 90 % of control | [2] 91 % of control | [9] 91 % of control

C[C@H]1CC(c2ccc(Cl)cc2)[C@@H](c2ccccc2)C(=O)O1 (stereo partly specified)
inactive: dose: 100.0 mg/kg/injection, schedule: Q04DX003 (ip), vehicle: Klucel (hydroxypropylcellulose) (HPC) 92 % of control | dose: 200.0 mg/kg/injection, schedule: Q04DX003 (ip), vehicle: Klucel (hydroxypropylcellulose) (HPC) 93 % of control | dose: 400.0 mg/kg/injection, schedule: Q04DX003 (ip), vehicle: Klucel (hydroxypropylcellulose) (HPC) 92 % of control

COc1ccc2c(c1OC)/C(=C/c1ccccc1)OC2C1c2c(cc3c(c2OC)OCO3)CCN1C (stereo unspecified)
inactive: [6] 104 % of control | [7] 105 % of control | [8] 96 % of control

C[C@]12CCC(=O)C(O)=C1CC[C@@H]1[C@@H]2CC[C@]2(C)C(=O)CC[C@@H]12
inactive: dose: 12.5 mg/kg/injection, schedule: Q01DX009 (ip), vehicle: Klucel (hydroxypropylcellulose) (HPC) 111 % of control and 96 % of control | dose: 25.0 mg/kg/injection, schedule: Q01DX009 (ip), vehicle: Klucel (hydroxypropylcellulose) (HPC) 100 % of control and 111 % of control | [3] 105 % of control and 106 % of control | [4] 92 % of control and 93 % of control | [5] 92 % of control and 96 % of control | dose: 400.0 mg/kg/injection, schedule: Q01DX009 (ip), vehicle: Klucel (hydroxypropylcellulose) (HPC) 111 % of control and 88 % of control

c1ccc(-c2nc3ccccc3nc2-c2ccc(-c3nc4ccccc4nc3-c3ccccc3)cc2)cc1
inactive: dose: 6.25 mg/kg/injection, schedule: Q01DX009 (ip), vehicle: saline with Tween-80 112 % of control | [10] 90 % of control

CCOC(OCC)C(=O)NNS(=O)(=O)c1ccc(C)cc1
inactive: dose: 12.5 mg/kg/injection, schedule: Q01DX009 (ip), vehicle: other 105 % of control | dose: 25.0 mg/kg/injection, schedule: Q01DX009 (ip), vehicle: other 106 % of control | dose: 50.0 mg/kg/injection, schedule: Q01DX009 (ip), vehicle: other 100 % of control | dose: 100.0 mg/kg/injection, schedule: Q01DX009 (ip), vehicle: other 99 % of control | dose: 200.0 mg/kg/injection, schedule: Q01DX009 (ip), vehicle: other 90 % of control

CC1C2=C(CC(=O)NC2=O)C(=O)N1Cc1ccccc1 (stereo unspecified)
inactive: [3] 103 % of control | [4] 106 % of control | [5] 97 % of control

COc1ccc(CSC(=S)Nc2ccc(N=Nc3ccccc3)cc2)cc1
inactive: [11] 107 % of control | [12] 104 % of control | dose: 200.0 mg/kg/injection, schedule: Q01DX009 (ip), vehicle: saline 119 % of control

O=[N+]([O-])c1c(O)c(CNCCCO)cc(CNCCCO)c1O
inactive: [13] 113 % of control | [11] 116 % of control

O=S(c1ccccc1)c1c(Cl)c(Cl)nc(Cl)c1Cl (stereo unspecified)
inactive: dose: 22.0 mg/kg/injection, schedule: Q01DX009 (ip), vehicle: saline with Tween-80 100 % of control and 113 % of control | dose: 33.0 mg/kg/injection, schedule: Q01DX009 (ip), vehicle: saline with Tween-80 109 % of control

S=C(Nc1ccccc1)NC1SNC(=Nc2ccccc2)N1c1ccccc1 (stereo unspecified)
inactive: [1] 106 % of control | [2] 95 % of control | [9] 95 % of control

CCN(CC)c1nc(N)nc(N)n1
inactive: dose: 6.25 mg/kg/injection, schedule: Q01DX009 (ip), vehicle: saline 106 % of control | [10] 107 % of control | dose: 12.5 mg/kg/injection, schedule: Q01DX009 (ip), vehicle: saline 103 % of control | dose: 25.0 mg/kg/injection, schedule: Q01DX009 (ip), vehicle: saline with Tween-80 103 % of control | [13] 107 % of control and 94 % of control | dose: 50.0 mg/kg/injection, schedule: Q01DX009 (ip), vehicle: saline with Tween-80 107 % of control and 94 % of control | [11] 100 % of control | dose: 100.0 mg/kg/injection, schedule: Q01DX009 (ip), vehicle: saline with Tween-80 101 % of control | [12] 97 % of control | dose: 200.0 mg/kg/injection, schedule: Q01DX009 (ip), vehicle: saline with Tween-80 88 % of control

[O-][n+]1c2ccccc2[n+]([O-])c2c(O)cccc21
inactive: dose: 3.12 mg/kg/injection, schedule: Q01DX009 (ip), vehicle: distilled water + Tween-80 113 % of control | dose: 6.25 mg/kg/injection, schedule: Q01DX009 (ip), vehicle: distilled water + Tween-80 114 % of control and 121 % of control | dose: 12.5 mg/kg/injection, schedule: Q01DX009 (ip), vehicle: distilled water + Tween-80 121 % of control | dose: 25.0 mg/kg/injection, schedule: Q01DX009 (ip), vehicle: distilled water + Tween-80 119 % of control and 122 % of control

O=C1C(Cl)=C(NCCCC2CCCN3CCCCC23)C(=O)c2ccccc21 (stereo unspecified)
inactive: dose: 25.0 mg/kg/injection, schedule: Q04DX002 (ip), vehicle: Klucel (hydroxypropylcellulose) (HPC) 100 % of control | dose: 50.0 mg/kg/injection, schedule: Q04DX002 (ip), vehicle: Klucel (hydroxypropylcellulose) (HPC) 101 % of control | dose: 100.0 mg/kg/injection, schedule: Q04DX002 (ip), vehicle: Klucel (hydroxypropylcellulose) (HPC) 114 % of control and 94 % of control

CN(CC#CC#CCN(C)c1ccccc1)c1ccccc1
inactive: [1] 102 % of control | [2] 102 % of control | [9] 102 % of control
